Measurements: patent US9238815B2 (priority 2009, dated 2016)

Key:
WSN-Ren virus [1] = assay type: cell-based, influenza A/WSN/33 virus
[2] = system: pseudotyped lentivirus particles bearing influenza virus HA (WSN); assay type: cell-based
influenza A/WSN/33 virus [3] = assay: Small molecule inhibition of virus growth in A549 cells, plaque assay; assay type: cell-based
influenza virus = assay type: cell-based
influenza A/WSN/33 virus [4] = assay type: cell-based
WSN-Ren virus [5] = assay type: cell-based, influenza A/WSN/33 virus; remark: listed apart in the source

For `CCc1cc(-c2n[nH]c(C)c2-c2ccc3c(c2)OCCO3)c(O)cc1O` [CCT018159, 4-(4-(2,3-Dihydro-1,4-benzodioxin-6-yl)-5-methyl-1H-pyrazol-3-yl)-6-ethylresorcinol], the WSN-Ren virus growth (WSN-Ren virus [1]) was “reduce influenza virus growth”.
`COc1cc2c(O)c3c(c(-c4ccc5c(c4)OCO5)c2cc1OC)C(=O)OC3` [Diphyllin] was tested, and the influenza virus entry [2] was “inhibits influenza virus entry”, the “inhibition of influenza A/WSN/33 virus” value (influenza A/WSN/33 virus [3]; A549 cells, MOI=1, FIG. 8b) was “Dose-dependent inhibition” and the “influenza virus inhibitory activity in high-throughput screen” value (influenza virus) was “having influenza virus inhibitory activity”.
With `O=c1[nH]c2ccccc2c(O)c1-c1nc2ccccc2[nH]1` [FGF/VEGF Receptor Inhibitor, 4-Hydroxy-3-benzimidazol-2-ylhydroquinolin-2-one] the WSN-Ren virus growth (WSN-Ren virus [1]) was “reduce influenza virus growth”.
`COc1ccc(S(=O)(=O)N(CCO)c2ccccc2CN(C)C/C=C/c2ccc(Cl)cc2)cc1` [KN-93] was tested, and the “influenza virus growth by plaque assay” value (influenza A/WSN/33 virus [3]; 20 μM) was “impairs influenza virus growth”, the “A/WSN/33 influenza viral replication (viral titers)” value (influenza A/WSN/33 virus [4]) was “inhibits A/WSN/33 influenza viral replication in a dose-dependent manner” and the “cell viability (ATP levels)” value (MDCK cells) was “without affecting cell viability”.
In the case of `COc1cc([C@@H]2c3cc4c(cc3[C@H](O)[C@H]3COC(=O)[C@H]23)OCO4)cc(OC)c1OC` [Podophyllotoxin], the WSN-Ren virus growth (WSN-Ren virus [1]) is reported as “reduce influenza virus growth”.
“HIST3H3 (guide TGAGAGGTTGCGCAACGTTCA; target site or template, no part of the molecule; target sequence, further chemistry not given here)” was tested, and the “Avg Score 12 h” value (WSN-Ren virus [5]) was 0.6254, the “Avg Score 24 h” value (WSN-Ren virus [5]) was 0.5921 and the “Avg Score 36 h” value (WSN-Ren virus [5]) was 0.4817.
